From paper PMC12501029, “Discovery of a CNS active GSK3 degrader using orthogonally reactive linker screening” (Nature Communications, 2025)

Experiments:
GSK3β = target: T1, GSK3β (Homo sapiens, UniProt P49841); assay: Immunoblot degradation of endogenous GSK3β in HEK293 cells; format: cell-based; settings: 10 nM; for endogenous GSK3β degradation: 2 h, HEK293
T1 construct: PROTAC-mediated degradation of untagged, endogenous GSK3β in HEK293 cells; host or cells: HEK293
Procedure: HEK293, HAP1, HAP1 CRBN KO and SH-SY5Y cells were plated in either 6 cm plates or 6-well plates at varying densities (0.5–0.7 × 10^6 cells per plate or wells), and MEF cells were plated in 10 cm plates (1–1.2 × 10^6 cells per plate) depending on experimental set up in respective culturing condition as described above. Stock solutions of compounds were prepared as 10 mM in DMSO (Sigma–Aldrich). Working dilutions were made up fresh in DMSO and culturing media or differentiation media was refreshed prior to any compound treatments. For mode of action studies, cells were pre-treated with inhibitors for 2 h: 1 µM MG132 (Merck, 474790-5 mg), 1 µM MLN4924 (Merck, 5054770001) or 1 µM GSK3 inhibitor (compound 29), before treating with PROTACs for 2, 4 or 24 h as indicated in figure legends. Cells were washed twice with ice-cold PBS (Gibco), harvested in PBS and pelleted, cells were resuspended in RIPA buffer supplemented with complete EDTA-free protease inhibitor cocktail (Roche,11873580001, 1/10 mL) and phosSTOP (Roche, 04906845001, 1 tablet/10 mL) for 20 min lysis on ice then cleared via centrifugation at 16,000 × g, 4 °C for 20 min. SH-SY5Y cells were lysed in 500 µL ice-cold lysis buffer (25 mM Tris-HCl (pH 7.4), 50 mM NaF, 100 mM NaCl, 1 mM EDTA, 4 mM EGTA, 1% (v/v) Triton-X-100, 0.09% (w/v) sucrose, 10 mM sodium pyrophosphate, 10 mM sodium vanodate, 0.1% (v/v) β-mercaptoethanol, supplemented with complete mini protease inhibitor tablet (Sigma; 1 tablet/ 10 mL buffer)). Lysates were flash frozen, thawed and centrifugated at 16,000 × g, 4 °C for 20 min. Following clearance of lysates, protein concentrations were determined by the BCA assay (Fisher Scientific, 23225) or Bradford assay (Bio-rad). Five to thirty micrograms of protein from lysates were prepared in 4×LDS buffer (Thermo Fisher) and 50 mM dithiothreitol (DTT) denaturated at 95 °C for 5 min. […]

GSK3β-HiBiT = target: T2, GSK3β-HiBiT (Homo sapiens, UniProt P49841); assay: Kinetic live cell degradation assay (LgBit transfected GSK3β-HiBiT KI HEK293 cells); format: cell-based
T2 construct: we generated endogenously tagged GSK3β-HiBiT knock-in (KI) HEK293 cells; endogenous in cells; host or cells: GSK3β-HiBiT KI HEK293 cells, transiently transfected with LgBit (Promega)
Procedure: For kinetic degradation assays, GSK3β-HiBiT KI HEK293 cells were reverse transfected into white bottom opaque 96-well assay plates. Briefly, GSK3β-HiBiT KI HEK293 cell suspension at a density of 2 × 10^6 per mL was prepared in standard culturing media. 10 mL of cell suspension mixed with transfection mix (1 mL of OptiMEM (Gibco) containing 3:1 ratio of FuGENE HD (Promega) and LgBit (Promega)). Then, cells were seeded into 96-well assay plate as a 100 µL cell suspension per well. After 24 h of transfection, the cell media was removed and 90 µL of CO2-independent medium supplemented with 10% FBS (Gibco) and 1:100 dilution of Endurazine (Promega) and incubated for 2.5 h at 37 °C. Test compounds were added onto cells and luminescence signals were monitored and recorded on GloMAX discover plate reader (Promega) in kinetic mode every 5 min. Data were normalised to DMSO conditions and plotted over time and degradation rates were calculated via Michaelis–Menten non-linear fitting analysis using GraphPad Prism (v10.1.2).

T1 sequence (P49841 whole entry): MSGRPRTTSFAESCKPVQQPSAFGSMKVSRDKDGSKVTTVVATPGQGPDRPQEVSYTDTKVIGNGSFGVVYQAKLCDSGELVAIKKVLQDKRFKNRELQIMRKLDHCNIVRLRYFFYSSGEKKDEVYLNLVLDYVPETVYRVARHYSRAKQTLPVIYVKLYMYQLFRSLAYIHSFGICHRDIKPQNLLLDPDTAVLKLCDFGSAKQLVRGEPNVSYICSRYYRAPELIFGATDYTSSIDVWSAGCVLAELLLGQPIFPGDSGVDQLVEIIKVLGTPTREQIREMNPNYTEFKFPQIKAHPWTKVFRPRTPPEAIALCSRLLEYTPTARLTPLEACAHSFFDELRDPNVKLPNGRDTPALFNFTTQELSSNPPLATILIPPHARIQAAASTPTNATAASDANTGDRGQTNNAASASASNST
T2 sequence (P49841 whole entry): as above
T2 sequence (Q96SW2 whole entry partner): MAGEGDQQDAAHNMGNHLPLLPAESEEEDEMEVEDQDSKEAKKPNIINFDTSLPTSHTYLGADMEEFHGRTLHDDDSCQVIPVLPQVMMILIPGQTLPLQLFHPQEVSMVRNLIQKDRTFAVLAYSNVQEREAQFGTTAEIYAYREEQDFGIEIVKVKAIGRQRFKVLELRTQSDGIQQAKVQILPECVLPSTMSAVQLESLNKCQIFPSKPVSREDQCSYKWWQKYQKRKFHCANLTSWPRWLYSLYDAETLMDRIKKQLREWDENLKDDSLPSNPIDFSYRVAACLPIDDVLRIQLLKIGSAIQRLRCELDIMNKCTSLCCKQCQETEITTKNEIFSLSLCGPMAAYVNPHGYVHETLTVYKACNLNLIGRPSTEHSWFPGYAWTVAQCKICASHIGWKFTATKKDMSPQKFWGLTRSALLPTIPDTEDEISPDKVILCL

Compound | impact on GSK3 levels (GSK3β; 30 min, HEK cells) | endogenous GSK3β degradation (GSK3β) | maximal degradation rate (λmax) (GSK3β-HiBiT; live cell, Michaelis-Menten fit) | degradation of GSK3β in live cells (GSK3β-HiBiT; 10 nM, after 2 h)
Cn1nc(N2CCC(=O)NC2=O)c2ccc(CN3CCN(Cc4ccc(-c5cn(-c6ccc(-c7cn8nccc(C(=O)Nc9cnccc9N9CCOCC9)c8n7)cc6)nn5)nc4)CC3)cc21 [compound 24] | little impact | almost complete removal | ~ 1.0 h^−1 | 
Cn1nc(N2CCC(=O)NC2=O)c2ccc(CN3CCN(CCCc4cn(-c5ccc(-c6cn7nccc(C(=O)Nc8cnccc8N8CCOCC8)c7n6)cc5)nn4)CC3)cc21 [compound 26] |  | almost complete |  | almost complete degradation
